Experimental data reported in patent publication US12240855B2, “Pyrrolopyrazole derivative” (DAIICHI SANKYO COMPANY, LIMITED, priority 2019, dated 2025).

What was measured:
HCT116 cells = assay: cells; details: Homo sapiens, HCT-116, 72 h, read-out: Test Example 3 HCT116 GI50
Method: (§1) McCoy's 5A medium containing 10% bovine serum was used as the culture medium for each cell. […] They were added to each well of 384-well plates at 40 nL/well using an Echo555 (Labcyte Inc.). […] On the day of compound addition (day 0) and 3 days after compound addition (day 3), 10 μL/well of CellTiter-Glo® 2.0 Assay (Promega, #G9242), which is a reagent for ATP measurement, was added to each well, and the amount of luminescence in each well was measured with EnVision. From the amount of luminescence on the day of compound addition (C0) and the amount of luminescence of the compound non-addition group (C3) and compound addition group (T3) after 3 days of culture, cell viability was calculated based on the following formula. Cell viability (%)=[(T3−C0)/(C3−C0)]×100

[1] = tested on: PTDSS2-KO A375 cell-subcutaneous transplanted model; assay: Test Example 8: Antitumor activity on PTDSS2-KO A375 cell-subcutaneous transplanted model; format: in vivo, female BALB/c-nu/nu mice; details: orally, once daily for 10 successive days (QD×10), test end date
Source text: PTDSS2-KO A375 cells were transplanted to a right subcutaneous axillary portion of female BALB/c-nu/nu mice at a proportion of 1×10^6 cells/head, and when the tumor volume reached 100 to 300 mm^3 (estimated tumor volume (major axis×minor axis×minor axis/2)), mice were divided into groups of 6 each such that there was no difference between groups. The female BALB/c-nu/nu mice were purchased from CHARLES RIVER LABORATORIES JAPAN, INC. The compound of Example 42 was orally administered from the day of grouping, once daily for 10 successive days (QD×10). The tumor volume was measured until the next day of completion of the administration (test end date). 0.5% methylcellulose (MC) was administered to the vehicle control group as the vehicle.
The antitumor activity on PTDSS2-KO A375 cell-subcutaneous transplanted model of Test Example 8 was calculated by the following formula on each test end date. TGI %=(1−TVt/TVc)×100 • TGI: Tumor growth suppression rate • TVt: Group mean tumor volume of compound administration group on test end date • TVc: Group mean tumor volume of vehicle control group on test end date

NCI-N87 cells = assay: Test Example 5: Cell growth suppression activity 2 (NCI-N87); format: cell-based; details: 168 h; NCI-N87 cells derived from human stomach cancer, 7 days of culture, ATP measurement (CellTiter-Glo 2.0)
Method: NCI-N87 derived from human stomach cancer was used. […] NCI-N87 cells were purchased from ATCC. NCI-N87 cells were seeded into 96 well plates at 5,000 cells/50 μL/well (day −1). The compound of Example 42 was serially diluted and prepared (10 steps, 20 μM-6 nM) and added to each well of 96 well plates at 50 μL/well. […] Cell viability (%)=[(T7−C0)/(C7−C0)]×100

PSS1 = PSS1 (Homo sapiens, UniProt P48651); assay: biochemical
Jeko-1 cells = assay: Test Example 7: Cell growth suppression activity 4 (Jeko-1); format: cell-based; details: 72 h; Jeko-1 cells derived from human mantle cell lymphoma, 3 days of culture, ATP measurement (CellTiter-Glo 2.0)
Method: Jeko-1 cells derived from human mantle cell lymphoma were used. […] Jeko-1 cells were purchased from ATCC. Jeko-1 cells were seeded into 96 well plates at 50,000 cells/50 μL/well (day 0). The compound of Example 42 was serially diluted and prepared (10 steps, 30 μM-3 nM) and added to each well of 96 well plates at 50 μL/well. […] Cell viability (%)=[(T3−C0)/(C3−C0)]×100

[2] = tested on: PTDSS2 gene-disrupted (PTDSS2-KO) HCT116 cells; assay: cells; details: Homo sapiens, HCT-116, 72 h, read-out: Test Example 3 PTDSS2-KO HCT116 GI50
Method: as §1

ZR-75-1 cells = assay: Test Example 6: Cell growth suppression activity 3 (ZR-75-1); format: cell-based; details: 144 h; ZR-75-1 cells derived from human breast cancer, 6 days of culture, ATP measurement (CellTiter-Glo 2.0)
Method: ZR-75-1 cells derived from human breast cancer were used. […] ZR-75-1 cells were purchased from ATCC. ZR-75-1 cells were seeded into 96 well plates at 5,000 cells/50 μL/well (day −1). The compound of Example 42 was serially diluted and prepared (10 steps, 20 μM-6 nM) and added to each well of 96 well plates at 50 μL/well. […] Cell viability (%)=[(T6−C0)/(C6−C0)]×100

[3] = tested on: PTDSS2-KO HCT116 cell-subcutaneous transplanted model; assay: Test Example 4: Antitumor activity on PTDSS2-KO HCT116 cell-subcutaneous transplanted model; format: in vivo, female BALB/c-nu/nu mice; details: oral
Source text: HCT116 cell-subcutaneous transplanted model PTDSS2-KO HCT116 cells were transplanted to a right subcutaneous axillary portion of female BALB/c-nu/nu mice at a proportion of 1×10^7 cells/head, and when the tumor volume reached 100 to 300 mm^3 (estimated tumor volume (major axis×minor axis×minor axis/2)), mice were divided into groups of 6 or 5 mice each such that there was no difference between groups. The female BALB/c-nu/nu mice were purchased from CHARLES RIVER LABORATORIES JAPAN, INC. The compounds of Examples 58, 57, 53, 30, 42, 32, 34, 33, and 31 were orally administered from the day of grouping in the dosing schedule shown in Table 12 (twice daily, 11 successive days (BID×11), or once daily, 13 successive days (QD×13)). The tumor volume was measured until the next day of completion of the administration (test end date). 0.5% methylcellulose (MC) was administered to the vehicle control group as the vehicle.
TGI %=(1−TVt/TVc)×100 • TGI: Tumor growth suppression rate • TVt: Group mean tumor volume of compound administration group on test end date • TVc: Group mean tumor volume of vehicle control group on test end date

[4] = 10 mg/kg, QD × 13, test end date
[5] = 20 mg/kg, QD × 13, test end date
[6] = 40 mg/kg, QD × 13, test end date

| SMILES | GI50 (HCT116 cells) [µM] | GI50 [2] [µM] | TGI (%) [3, 4] [%] | TGI (%) [3, 5] [%] | TGI (%) [3, 6] [%] | other results |
| --- | --- | --- | --- | --- | --- | --- |
| CC(F)(F)CN1C(=O)c2[nH]nc(-c3cccc4[nH]c(=O)oc34)c2[C@@H]1c1ccc(Oc2cc(C(F)(F)F)cc(C(F)(F)F)c2)cc1 [Example 42, (−)-7-[4-{4-[3,5-bis(trifluoromethyl)phenoxy]phenyl}-5-(2,2-difluoropropyl)-6-oxo-1,4,5,6-tetrahydropyrrolo[3,4-c]pyrazol-3-yl]-1,3-benzoxazol-2(3H)-one] | > 25 | 0.014 | 97 | 98 | 99 | TGI (%) ([1]; Dose 3 mg/kg): 47%; TGI (%) ([1]; Dose 10 mg/kg): 100%; TGI (%) ([1]; Dose 30 mg/kg): 100%; TGI (%) ([1]; Dose 100 mg/kg): 100%; GI50 (NCI-N87 cells): 0.0074 µM; IC50 (PSS1): 0.2 µM; GI50 (Jeko-1 cells): 0.417 µM; GI50 (ZR-75-1 cells): 2.9 µM |
| CC(F)(F)CN1C(=O)c2[nH]nc(-c3cccc4[nH]c(=O)oc34)c2C1c1ccc(Oc2ccc(OC(F)(F)F)c(C(F)(F)F)c2)cc1 (single isomer, unassigned; (-)) [Example 33, (−)-7-[5-(2,2-difluoropropyl)-6-oxo-4-{4-[4-(trifluoromethoxy)-3-(trifluoromethyl)phenoxy]phenyl}-1,4,5,6-tetrahydropyrrolo[3,4-c]pyrazol-3-yl]-1,3-benzoxazol-2(3H)-one] |  | 0.014 | 97 | 98 | 98 |  |
| CC(F)(F)CN1C(=O)c2[nH]nc(-c3cccc4[nH]c(=O)oc34)c2C1c1ccnc(Oc2ccc(F)cc2)n1 (stereo not drawn) [Example 73, 7-{5-(2,2-Difluoropropyl)-4-[2-(4-fluorophenoxy)pyrimidine-4-yl]-6-oxo-1,4,5,6-tetrahydropyrrolo[3,4-c]pyrazol-3-yl}-1,3-benzoxazol-2(3H)-one] | 19 | 0.89 |  |  |  |  |
| CC(F)(F)CN1C(=O)c2[nH]nc(-c3cccc4[nH]c(=O)sc34)c2C1c1ccc(Oc2ccc(OC(F)(F)F)cc2)cc1 (stereo not drawn) [Example 95, 7-[5-(2,2-Difluoropropyl)-6-oxo-4-{4-[4-(trifluoromethoxy)phenoxy]phenyl}-1,4,5,6-tetrahydropyrrolo[3,4-c]pyrazol-3-yl]-1,3-benzothiazol-2(3H)-one] | 7.3 | 6.4 |  |  |  |  |
| O=C1c2[nH]nc(-c3cccc4[nH]c(=O)oc34)c2C(c2cc(Oc3ccccc3)ccc2F)N1Cc1ccccn1 (stereo not drawn) [Example 13, 7-{4-(2-Fluoro-5-phenoxyphenyl)-6-oxo-5-[(pyridin-2-yl)methyl]-1,4,5,6-tetrahydropyrrolo[3,4-c]pyrazol-3-yl}-1,3-benzoxazol-2(3H)-one] | > 25 | 0.82 |  |  |  |  |
| O=C1c2[nH]nc(-c3cccc4[nH]c(=O)oc34)c2C(c2ccc(F)cc2)N1CC(F)(F)F (single isomer, unassigned) [Example 8, 7-[4-(4-Fluorophenyl)-6-oxo-5-(2,2,2-trifluoroethyl)-1,4,5,6-tetrahydropyrrolo[3,4-c]pyrazol-3-yl]-1,3-benzoxazol-2(3H)-one (enantiomer)] | > 25 | 1.1 |  |  |  |  |
| CC(F)(F)CN1C(=O)c2[nH]nc(-c3cccc4[nH]c(=O)oc34)c2C1c1ccc(Oc2cc(C(F)(F)F)cc(C(F)(F)F)c2)cc1 (single isomer, unassigned; (+)) [(+)-7-[4-{4-[3,5-bis(trifluoromethyl)phenoxy]phenyl}-5-(2,2-difluoropropyl)-6-oxo-1,4,5,6-tetrahydropyrrolo[3,4-c]pyrazol-3-yl]-1,3-benzoxazol-2(3H)-one] |  |  |  |  |  | IC50 (PSS1): > 5 µM |
| O=C1c2[nH]nc(-c3cccc4[nH]c(=O)oc34)c2C(c2cc(OC3CCOCC3)ccc2F)N1CC(F)(F)F (stereo not drawn) [Example 9, 7-[4-{2-Fluoro-5-[(oxan-4-yl)oxy]phenyl}-6-oxo-5-(2,2,2-trifluoroethyl)-1,4,5,6-tetrahydropyrrolo[3,4-c]pyrazol-3-yl]-1,3-benzoxazol-2(3H)-one] | > 25 | 0.7 |  |  |  |  |
| Cc1cc(Oc2ccc(C3c4c(-c5cccc6[nH]c(=O)oc56)n[nH]c4C(=O)N3CC(C)(F)F)cc2)ccc1OC(F)(F)F (single isomer, unassigned; (-)) [Example 32, (−)-7-[5-(2,2-difluoropropyl)-4-{4-[3-methyl-4-(trifluoromethoxy)phenoxy]phenyl}-6-oxo-1,4,5,6-tetrahydropyrrolo[3,4-c]pyrazol-3-yl]-1,3-benzoxazol-2(3H)-one] |  |  | 95 | 98 | 98 |  |
| CC(F)(F)CN1C(=O)c2[nH]nc(-c3cccc4[nH]c(=O)oc34)c2C1c1cccc(Oc2ccc(F)cc2)c1 (single isomer, unassigned; (-)) [Example 53, (−)-7-{5-(2,2-Difluoropropyl)-4-[3-(4-fluorophenoxy)phenyl]-6-oxo-1,4,5,6-tetrahydropyrrolo[3,4-c]pyrazol-3-yl}-1,3-benzoxazol-2(3H)-one] |  |  |  |  |  | TGI (%) ([3]; 50 mg/kg, BID × 11, test end date): 41%; TGI (%) ([3]; 100 mg/kg, BID × 11, test end date): 83% |
